Patent US5153352A, “Process for preparation of intermediates of carbocyclic nucleoside analogs” (priority 1990, dated 1992)
Values after ≈ are worked out from the molar mass of the structure shown.

Experiments:
[1] = system: Human Immunodeficiency Virus (HIV); assay: HIV CPE inhibition assay in ATH8 cells; type: cell-based; parameters: ID50: unit not given beside the values
Method: The ATH8 human T-cell line expresses high levels of the CD4 surface antigen and is quite sensitive to the cytopathogenic effect (CPE) of HIV. The cells were propagated in RPMI 1640 medium supplemented with 4mM glutamine, 15% heat-inactivated fetal bovine serum (Biocell), antibiotics (50 units of penicillin and […] of streptomycin per ml), and 50 units of recombinant-derived human interleukin-2 (ala-125; AMGen Biologicals) per ml.
The clone H9 cell line is another CD4^+ human T-cell line which is permissive for HIV replication but largely resistant to virus induced CPE. H9 cells productively infected with the HTLV IIIB strain of HIV served as the source of infectious virus. These cells were propagated in RPMI 1640 medium supplemented with glutamine and antibiotics as described above, and with 20% heat-inactivated fetal bovine serum. Freshly harvested, undiluted culture supernatant from the H9/HTLV-IIIB producer cells was used for infectious virus inoculum.
The screening of compounds for antiviral activity was performed using a modification of the CPE inhibition assay originally developed by Broder and co workers. This assay is based on the ability of uninfected ATH8 cells to grow and form a pellet at the bottom of a culture tube. Starting about 4 days after HIV addition, infected ATH8 cells begin to die and the pellet starts to break up. By day 10 a clear differential is observable in the size of the cell pellet in uninfected control wells versus infected control wells. The protective effect of test compounds can be assessed by adding them at varying concentrations to the cultured cells at the time of virus infection, then monitoring the status of the cell pellet.
ATH8 cells were used as the primary target in the HIV induced CPE inhibition assay. Cells were treated with polybrene (2 ug/ml in growth medium) for 30 minutes at 37° C., then collected by gentle centrifugation (40×g for 15 minutes at room temperature) and resuspended in clarified (8000×g for 15 minutes at 4° C.) supernate freshly harvested from 48 hours post passage H9/HTL IIIB cells. Following a 60-minute adsorption period at 37° C., the cells were dispensed into the U-bottom wells of 96-well trays (1×10^4 cells in 0.1 ml per well). An equal volume (0.1 ml) of supplemented RPMI 1640 medium containing test compound and twice the normal concentration of interleukin-2 was then added to each well. Test compounds were evaluated at seven half-log dilutions ranging from 100 uq/ml to 0.1 uq/ml. […]
Between 7 and 10 days post infection, all wells were visually monitored for the degree of CPE inhibition as reflected by cell pellet size, and aliquots were taken from selected wells for determination of cell number and viability (based on trypan blue dye exclusion).

[2] = system: duck hepatitis B virus (DHBV); assay: efficacy against hepatitis B virus in vivo in ducklings; parameters: species or system Peking duckling infected with duck hepatitis B virus
Method: The test method is an adaptation of the method of Smee, et al., Antimicrob. Agents Chemotherap. 27 277 (1985). The serum level of duck hepatitis B virus (DHBV) DNA was monitored in 6 infected Peking ducklings from age 6 days to age 27 days. Four ducklings were treated with 70 mg/kg/day IP, b.i.d. of the test compound as a 3 mg/ml solution in 0.9% aqueous NaCl on days 10-17. Two control ducklings were treated with 23 ml/kg/day IP, b.i.d. of 0.9% aqueous NaCl on days 10-17. The level of DHBV DNA in the duckling serum was measured daily.

HSV-1(E-377) = assay: plaque reduction, HSV-1(E-377) in Vero cells; type: cell-based, Herpes simplex virus type 1; settings: Human alphaherpesvirus 1, plaque reduction 50%, read-out: MIC50
Method: After the adsorption period, the infected cell monolayers were treated in duplicate with serial dilutions of the test compound. Duplicate cell controls containing medium alone and virus controls containing medium and virus were run simultaneously with the test compound. […] Plaques visible to the unaided eye were counted and the mean number of plaques in the duplicate wells for each compound concentration tested and for the untreated, virus infected controls were determined.

Nc1ncnc2c1ncn2C1CC(CO)C1CO (stereo not shown) [Example 4C, 9-(2',3'-Bis(hydroxymethyl)cyclobutyl)adenine]
ID50 [1]: < 0.1
TI [1]: 32
VR [1]: 3.5

Nc1nc2c(ncn2C2CC(CO)C2CO)c(=O)[nH]1 (stereo not shown) [Example 1I, 9-(2',3'-Bis(hydroxymethyl)cyclobutyl)guanine]
Serum DHBV DNA ([2]; duck 1, age 6 days, before treatment): 187 ng/mL
Serum DHBV DNA ([2]; duck 1, age 7 days, before treatment): 156 ng/mL
Serum DHBV DNA ([2]; duck 1, age 8 days, before treatment): 168 ng/mL
Serum DHBV DNA ([2]; duck 1, age 9 days, before treatment): 233 ng/mL
Serum DHBV DNA ([2]; duck 1, age 10 days, 70 mg/kg/day IP days 10-17): 213 ng/mL
Serum DHBV DNA ([2]; duck 1, age 11 days, 70 mg/kg/day IP days 10-17): 155 ng/mL
Serum DHBV DNA ([2]; duck 1, age 12 days, 70 mg/kg/day IP days 10-17): 64 ng/mL
Serum DHBV DNA ([2]; duck 1, age 13 days, 70 mg/kg/day IP days 10-17): 11 ng/mL
Serum DHBV DNA ([2]; duck 1, age 14 days, 70 mg/kg/day IP days 10-17): 6 ng/mL
Serum DHBV DNA ([2]; duck 1, age 15 days, 70 mg/kg/day IP days 10-17): < 1 ng/mL
Serum DHBV DNA ([2]; duck 1, age 16 days, 70 mg/kg/day IP days 10-17): < 1 ng/mL
Serum DHBV DNA ([2]; duck 1, age 17 days, 70 mg/kg/day IP days 10-17): < 1 ng/mL
Serum DHBV DNA ([2]; duck 1, age 18 days, 70 mg/kg/day IP days 10-17): < 1 ng/mL
Serum DHBV DNA ([2]; duck 1, age 19 days, 70 mg/kg/day IP days 10-17): < 1 ng/mL
Serum DHBV DNA ([2]; duck 1, age 20 days, 70 mg/kg/day IP days 10-17): < 1 ng/mL
Serum DHBV DNA ([2]; duck 1, age 21 days, 70 mg/kg/day IP days 10-17): < 1 ng/mL
Serum DHBV DNA ([2]; duck 1, age 22 days, 70 mg/kg/day IP days 10-17): 3 ng/mL
Serum DHBV DNA ([2]; duck 1, age 23 days, 70 mg/kg/day IP days 10-17): 12 ng/mL
Serum DHBV DNA ([2]; duck 1, age 24 days, 70 mg/kg/day IP days 10-17): 16 ng/mL
Serum DHBV DNA ([2]; duck 1, age 25 days, 70 mg/kg/day IP days 10-17): 31 ng/mL
Serum DHBV DNA ([2]; duck 1, age 26 days, 70 mg/kg/day IP days 10-17): 71 ng/mL
Serum DHBV DNA ([2]; duck 1, age 27 days, 70 mg/kg/day IP days 10-17): 134 ng/mL
Serum DHBV DNA ([2]; duck 2, age 6 days, before treatment): 143 ng/mL
Serum DHBV DNA ([2]; duck 2, age 7 days, before treatment): 111 ng/mL
Serum DHBV DNA ([2]; duck 2, age 8 days, before treatment): 121 ng/mL
Serum DHBV DNA ([2]; duck 2, age 9 days, before treatment): 102 ng/mL
Serum DHBV DNA ([2]; duck 2, age 10 days, 70 mg/kg/day IP days 10-17): 120 ng/mL
Serum DHBV DNA ([2]; duck 2, age 11 days, 70 mg/kg/day IP days 10-17): 61 ng/mL
Serum DHBV DNA ([2]; duck 2, age 12 days, 70 mg/kg/day IP days 10-17): 27 ng/mL
Serum DHBV DNA ([2]; duck 2, age 13 days, 70 mg/kg/day IP days 10-17): 2 ng/mL
Serum DHBV DNA ([2]; duck 2, age 14 days, 70 mg/kg/day IP days 10-17): 1 ng/mL
Serum DHBV DNA ([2]; duck 2, age 15 days, 70 mg/kg/day IP days 10-17): < 1 ng/mL
Serum DHBV DNA ([2]; duck 2, age 16 days, 70 mg/kg/day IP days 10-17): < 1 ng/mL
Serum DHBV DNA ([2]; duck 2, age 17 days, 70 mg/kg/day IP days 10-17): < 1 ng/mL
Serum DHBV DNA ([2]; duck 2, age 18 days, 70 mg/kg/day IP days 10-17): < 1 ng/mL
Serum DHBV DNA ([2]; duck 2, age 19 days, 70 mg/kg/day IP days 10-17): < 1 ng/mL
Serum DHBV DNA ([2]; duck 2, age 20 days, 70 mg/kg/day IP days 10-17): < 1 ng/mL
Serum DHBV DNA ([2]; duck 2, age 21 days, 70 mg/kg/day IP days 10-17): < 1 ng/mL
Serum DHBV DNA ([2]; duck 2, age 22 days, 70 mg/kg/day IP days 10-17): < 1 ng/mL
Serum DHBV DNA ([2]; duck 2, age 23 days, 70 mg/kg/day IP days 10-17): < 1 ng/mL
Serum DHBV DNA ([2]; duck 2, age 24 days, 70 mg/kg/day IP days 10-17): < 1 ng/mL
Serum DHBV DNA ([2]; duck 2, age 25 days, 70 mg/kg/day IP days 10-17): 2 ng/mL
Serum DHBV DNA ([2]; duck 2, age 26 days, 70 mg/kg/day IP days 10-17): 2 ng/mL
Serum DHBV DNA ([2]; duck 2, age 27 days, 70 mg/kg/day IP days 10-17): 7 ng/mL
Serum DHBV DNA ([2]; duck 3, age 6 days, before treatment): 520 ng/mL
Serum DHBV DNA ([2]; duck 3, age 7 days, before treatment): 311 ng/mL
Serum DHBV DNA ([2]; duck 3, age 8 days, before treatment): 277 ng/mL
Serum DHBV DNA ([2]; duck 3, age 9 days, before treatment): 412 ng/mL
Serum DHBV DNA ([2]; duck 3, age 10 days, 70 mg/kg/day IP days 10-17): 377 ng/mL
Serum DHBV DNA ([2]; duck 3, age 11 days, 70 mg/kg/day IP days 10-17): 130 ng/mL
Serum DHBV DNA ([2]; duck 3, age 12 days, 70 mg/kg/day IP days 10-17): 77 ng/mL
Serum DHBV DNA ([2]; duck 3, age 13 days, 70 mg/kg/day IP days 10-17): 16 ng/mL
Serum DHBV DNA ([2]; duck 3, age 14 days, 70 mg/kg/day IP days 10-17): 2 ng/mL
Serum DHBV DNA ([2]; duck 3, age 15 days, 70 mg/kg/day IP days 10-17): 2 ng/mL
Serum DHBV DNA ([2]; duck 3, age 16 days, 70 mg/kg/day IP days 10-17): < 1 ng/mL
Serum DHBV DNA ([2]; duck 3, age 17 days, 70 mg/kg/day IP days 10-17): < 1 ng/mL
Serum DHBV DNA ([2]; duck 3, age 18 days, 70 mg/kg/day IP days 10-17): < 1 ng/mL
Serum DHBV DNA ([2]; duck 4, age 6 days, before treatment): 288 ng/mL
Serum DHBV DNA ([2]; duck 4, age 7 days, before treatment): 215 ng/mL
Serum DHBV DNA ([2]; duck 4, age 8 days, before treatment): 256 ng/mL
Serum DHBV DNA ([2]; duck 4, age 9 days, before treatment): 311 ng/mL
Serum DHBV DNA ([2]; duck 4, age 10 days, 70 mg/kg/day IP days 10-17): 333 ng/mL
Serum DHBV DNA ([2]; duck 4, age 11 days, 70 mg/kg/day IP days 10-17): 132 ng/mL
Serum DHBV DNA ([2]; duck 4, age 12 days, 70 mg/kg/day IP days 10-17): 21 ng/mL
Serum DHBV DNA ([2]; duck 4, age 13 days, 70 mg/kg/day IP days 10-17): 2 ng/mL
Serum DHBV DNA ([2]; duck 4, age 14 days, 70 mg/kg/day IP days 10-17): 1 ng/mL
Serum DHBV DNA ([2]; duck 4, age 15 days, 70 mg/kg/day IP days 10-17): 1 ng/mL
Serum DHBV DNA ([2]; duck 4, age 16 days, 70 mg/kg/day IP days 10-17): 1 ng/mL
Serum DHBV DNA ([2]; duck 4, age 17 days, 70 mg/kg/day IP days 10-17): < 1 ng/mL
Serum DHBV DNA ([2]; duck 4, age 18 days, 70 mg/kg/day IP days 10-17): < 1 ng/mL
Serum DHBV DNA ([2]; duck 4, age 19 days, 70 mg/kg/day IP days 10-17): < 1 ng/mL
Serum DHBV DNA ([2]; duck 4, age 20 days, 70 mg/kg/day IP days 10-17): < 1 ng/mL
Serum DHBV DNA ([2]; duck 4, age 21 days, 70 mg/kg/day IP days 10-17): < 1 ng/mL
Serum DHBV DNA ([2]; duck 4, age 22 days, 70 mg/kg/day IP days 10-17): < 1 ng/mL
Serum DHBV DNA ([2]; duck 4, age 23 days, 70 mg/kg/day IP days 10-17): < 1 ng/mL
Serum DHBV DNA ([2]; duck 4, age 24 days, 70 mg/kg/day IP days 10-17): < 1 ng/mL
Serum DHBV DNA ([2]; duck 4, age 25 days, 70 mg/kg/day IP days 10-17): < 1 ng/mL
death of treated ducks ([2]; ducks 3 and 4, 70 mg/kg/day IP b.i.d. days 10-17): ducks 3 and 4 died on day 18 and day 26, respectively
EC50 (HSV-1(E-377)): 0.5 µg/mL (≈ 1.88 µM)
